The test system of series [1] is Mus musculus. The series can be described thus: Anticonvulsant activity in albino CF1 mouse assessed as time to clonus at 54 mg/kg, ip administered 0.25 hrs prior to MTZ challenge (reference value: 29 +/- 1.6 s). It counts as functional.
Series [2] in a line: Toxicity in albino CF1 mouse assessed as body weight at 54 mg/kg, ip measured at 0.25 hrs (reference value: 26.5 +/- 0.3 g). It counts as organism-based. The note with it: in vivo.
Series [3] relates to Mus musculus. The series can be described thus: Anticonvulsant activity in albino CF1 mouse assessed as metrazol dose causing first clonus at 196 mg/kg, ip administered 0.25 hrs prior to MTZ challenge (reference value: 30.9 +/- 1.6 mg/kg). It is filed as functional.
Series [4] is described as follows: Toxicity in albino CF1 mouse assessed as body weight at 196 mg/kg, ip measured at 0.25 hrs (reference value: 26.5 +/- 0.3 g). Conditions: in vivo. It is filed as organism-based.
The test system of series [5] is Mus musculus. The series can be described thus: Neuroprotective activity against controlled cortical impact-induced C57Bl/6 acute mouse model of traumatic brain injury assessed as lesion volume at 54 mg/kg, ip administered twice daily for 3 days starting from 0.5 hrs post controlled cortical impact challenge measured post-last dose by naurotrace 435/455 staining-based fluorescent microscopy (reference value: 11.9 +/- 0.7 mm3). It counts as functional.

Series [6] deals with Mus musculus. The series can be described thus: Anticonvulsant activity in ip dosed 60-Hz corneal stimulation-induced full kindling albino CF1 mouse model of epilepsy assessed as reduction in seizure score treated 0.25 hrs prior to 60-Hz corneal stimulation. It is filed as functional.
Series [7] deals with Mus musculus. The series can be described thus: Anticonvulsant activity in albino CF1 mouse model of metrazol-induced seizures assessed as metrazol dose causing first twitch at 196 mg/kg, ip administered 0.25 hrs prior to MTZ challenge (reference value: 27.6 +/- 1.3 mg/kg). It is filed as functional.
Series [8] has as its system Mus musculus. The series can be described thus: Anticonvulsant activity in 60-Hz corneal stimulation-induced full kindling albino CF1 mouse model of epilepsy assessed as reduction in seizure score at 94 mg/kg, ip administered 0.25 hrs prior to 60-Hz corneal stimulation. It counts as functional, organism-based.
The test system of series [9] is Mus musculus. The series can be described thus: Anticonvulsant activity in albino CF1 mouse model of metrazol-induced seizures assessed as metrazol dose causing first twitch at 54 mg/kg, ip administered 0.25 hrs prior to MTZ challenge (reference value: 27.6 +/- 1.3 mg/kg). It is filed as functional.
For series [10], the system named is Mus musculus. Kind of series: Anticonvulsant activity in albino CF1 mouse assessed as time to clonus at 196 mg/kg, ip administered 0.25 hrs prior to MTZ challenge (reference value: 29 +/- 1.6 s). It counts as functional.
In series [11] the test system is Mus musculus. The series can be described thus: Anticonvulsant activity in albino CF1 mouse assessed as metrazol dose causing first clonus at 54 mg/kg, ip administered 0.25 hrs prior to MTZ challenge (reference value: 30.9 +/- 1.6 mg/kg). It is filed as functional.
Series [12] relates to Brain. Kind of series: In vitro anticonvulsant activity in kainic acid-induced albino Sprague Dawley rat brain assessed as blockade of ACSF-stimulated spontaneous electrographic seizure-like activity in medial entorhinal cortex hippocampal brain slices by measuring burst rate at 100 uM measured after 20 mins relative to control. It counts as functional.
Series [13] deals with Mus musculus. The series can be described thus: Anticonvulsant activity in albino CF1 mouse model of metrazol-induced seizures assessed as time to twitch at 54 mg/kg, ip administered 0.25 hrs prior to MTZ challenge (reference value: 25.9 +/- 1.3 s). It counts as functional.
Series [14] relates to Brain. Kind of series: In vitro anticonvulsant activity in kainic acid-induced albino Sprague Dawley rat brain assessed as blockade of ACSF-stimulated spontaneous electrographic seizure-like activity in medial entorhinal cortex hippocampal brain slices by measuring burst duration at 100 uM measured after 20 mins relative to control. It is filed as functional.
For series [15], the system named is Mus musculus. The series can be described thus: Anticonvulsant activity in albino CF1 mouse model of metrazol-induced seizures assessed as time to twitch at 196 mg/kg, ip administered 0.25 hrs prior to MTZ challenge (reference value: 25.9 +/- 1.3 s). It is filed as functional.
Series [16] relates to Rattus norvegicus. Kind of series: Antiallodynic activity in albino Sprague-Dawley rat model of sciatic nerve ligation-induced neuropathic pain assessed as increase in paw withdrawal threshold at 50 mg/kg, po measured after 1 hr by Von Frey test relative to control. It is filed as functional.
Series [17] has as its system Mus musculus. The series can be described thus: Analgesic activity in formalin-induced albino CF1 mouse model of hyperalgesia assessed as time spent in paw licking during acute phase at 43 mg/kg, ip administered 0.25 hrs prior to formalin challenge measured first 2 mins of five minutes test for 10 mins by formalin test relative to control. It counts as functional.
Series [18] deals with Mus musculus. Kind of series: Anticonvulsant activity in albino CF1 mouse model of metrazol-induced seizures assessed as metrazol dose causing first twitch at 43 mg/kg, ip administered 0.25 hrs prior to MTZ challenge (reference value: 27.9 +/- 1.2 mg/kg). It counts as functional.
For series [19], the system named is Mus musculus. The series can be described thus: Anticonvulsant activity in 60-Hz corneal stimulation-induced full kindling albino CF1 mouse model of epilepsy assessed as reduction in seizure score at 60 mg/kg, ip administered 0.25 hrs prior to 60-Hz corneal stimulation. It counts as functional, organism-based.
Series [20] relates to Mus musculus. The series can be described thus: Anticonvulsant activity in albino CF1 mouse assessed as metrazol dose causing first clonus at 43 mg/kg, ip administered 0.25 hrs prior to MTZ challenge (reference value: 31.1 +/- 1.4 mg/kg). It is filed as functional.
For series [21], the system named is Mus musculus. Kind of series: Anticonvulsant activity in albino CF1 mouse assessed as metrazol dose causing first clonus at 150 mg/kg, ip administered 0.25 hrs prior to MTZ challenge (reference value: 31.1 +/- 1.4 mg/kg). It is filed as functional.
Series [22] deals with Mus musculus. The series can be described thus: Analgesic activity in formalin-induced albino CF1 mouse model of hyperalgesia assessed as time spent in paw licking during inflammatory phase at 43 mg/kg, ip administered 0.25 hrs prior to formalin challenge measured first 2 mins of five minutes test for 10 to 40 mins by formalin test relative to control. It is filed as functional.

In series [23] the test system is Mus musculus. The series can be described thus: Anticonvulsant activity in albino CF1 mouse model of metrazol-induced seizures assessed as metrazol dose causing first twitch at 150 mg/kg, ip administered 0.25 hrs prior to MTZ challenge (reference value: 27.9 +/- 1.2 mg/kg). It is filed as functional.
Series [24] has as its system Rattus norvegicus. The series can be described thus: Antiallodynic activity in albino Sprague-Dawley rat model of sciatic nerve ligation-induced neuropathic pain assessed as increase in paw withdrawal threshold at 50 mg/kg, po measured after 4 hrs by Von Frey test relative to control. It is filed as functional.
In series [25] the test system is Rattus norvegicus. The series can be described thus: Antiallodynic activity in albino Sprague-Dawley rat model of sciatic nerve ligation-induced neuropathic pain assessed as time required to show maximum increase in paw withdrawal threshold at 50 mg/kg, po Von Frey test. It counts as functional.
Series [26] deals with Mus musculus. Kind of series: Anticonvulsant activity in 60-Hz corneal stimulation-induced full kindling albino CF1 mouse model of epilepsy assessed as reduction in seizure score at 20 mg/kg, ip administered 0.25 hrs prior to 60-Hz corneal stimulation. It is filed as functional, organism-based.
Series [27] in a line: Toxicity in albino CF1 mouse assessed as body weight at 150 mg/kg, ip measured at 0.25 hrs (reference value: 26.4 +/- 0.4 g). It is filed as organism-based. The note with it: in vivo.
For series [28], the system named is Mus musculus. The series can be described thus: Anticonvulsant activity in albino CF1 mouse model of metrazol-induced seizures assessed as time to twitch at 150 mg/kg, ip administered 0.25 hrs prior to MTZ challenge (reference value: 26.1 +/- 1.2 s). It is filed as functional.
Series [29] deals with Mus musculus. The series can be described thus: Anticonvulsant activity in albino CF1 mouse assessed as time to clonus at 150 mg/kg, ip administered 0.25 hrs prior to MTZ challenge (reference value: 29 +/- 1.5 s). It counts as functional.
Series [30] deals with Mus musculus. The series can be described thus: Anticonvulsant activity in albino CF1 mouse model of metrazol-induced seizures assessed as time to twitch at 43 mg/kg, ip administered 0.25 hrs prior to MTZ challenge (reference value: 26.1 +/- 1.2 s). It is filed as functional.
Series [31] deals with Mus musculus. The series can be described thus: Anticonvulsant activity in 60-Hz corneal stimulation-induced full kindling albino CF1 mouse model of epilepsy assessed as reduction in seizure score at 86 mg/kg, ip administered 0.25 hrs prior to 60-Hz corneal stimulation. It counts as functional, organism-based.
For series [32], the system named is Rattus norvegicus. Kind of series: Antiallodynic activity in albino Sprague-Dawley rat model of sciatic nerve ligation-induced neuropathic pain assessed as increase in paw withdrawal threshold at 50 mg/kg, po measured after 6 hrs by Von Frey test relative to control. It counts as functional.
A short description of series [33]: Toxicity in albino CF1 mouse assessed as body weight at 43 mg/kg, ip measured at 0.25 hrs (reference value: 26.4 +/- 0.4 g). It counts as organism-based. The note with it: in vivo.
Series [34] concerns Mus musculus. The series can be described thus: Anticonvulsant activity in albino CF1 mouse assessed as time to clonus at 43 mg/kg, ip administered 0.25 hrs prior to MTZ challenge (reference value: 29 +/- 1.5 s). It counts as functional.
Series [35] concerns Rattus norvegicus. Kind of series: Antiallodynic activity in albino Sprague-Dawley rat model of sciatic nerve ligation-induced neuropathic pain assessed as increase in paw withdrawal threshold at 50 mg/kg, po measured after 2 hrs by Von Frey test relative to control. It is filed as functional.
Series [36] concerns Mus musculus. Kind of series: Neuroprotective activity against controlled cortical impact-induced C57Bl/6 acute mouse model of traumatic brain injury assessed as lesion volume at 43 mg/kg, ip administered twice daily for 3 days starting from 0.5 hrs post controlled cortical impact challenge measured post-last dose by naurotrace 435/455 staining-based fluorescent microscopy (reference value: 11.9 +/- 0.7 mm3). It counts as functional.

Calls of active or inactive are those of the source.

The ED50 is the dose that gives a 50% effect, or the effect in half of the subjects.

Turning to `CCC(CO)NC(=O)/C=C/c1ccc(Cl)cc1` (racemic), the Time in series [1] is reported as 42.1 s; in series [10] it was 90.2 s; in series [13] it was 33.9 s; in series [15] it was 63 s. Besides, the Activity in [2] was determined as 26.5 g; in [3], 98.6 mg/kg; in [4], 26 g; in series [5], 11.44 mm3; in [7], 68.7 mg/kg; in series [9], 36.2 mg/kg. The values for the Activity in series [11], in series [12] and in [14] were 44.9 mg/kg, 87% and 90%, respectively. Also, in [6], the 50% effective dose (ED50) amounted to 25.7 mg/kg. Moreover, the result in series [8] was Active.
Regarding `Cc1ccccc1/C=C/C(=O)N[C@@H](C)CO`, the Activity was 233% in series [16]; 34.23% in [17]; 53.4 mg/kg in series [18]; 74.6 mg/kg in series [20]; 96.3 mg/kg in series [21]; 84.29% in series [22]. In addition, the Activity in [23] amounted to 93.5 mg/kg; in series [24], 249%; in series [27], 26.5 g; in series [32], 237%; in [12], 106%; in [33], 25.6 g. Also, the Activity is recorded as 82% in series [14], 254% in [35] and 11.09 mm3 in series [36]. Moreover, the result in series [19] and in [31] was Active. Also, the Time is 2 h in [25]; 87.3 s in [28]; 90 s in series [29]; 48.2 s in series [30]; 67.2 s in series [34]. Moreover, the outcome in [26] was inactive. For the same compound, the ED50 in [6] came to 36.8 mg/kg.

For the origin of these results see ChEMBL document CHEMBL4387714, “Four N-(E)-cinnamoyl (cinnamamide) derivatives of aminoalkanols with promising anticonvulsant and analgesic activity” (Bioorg Med Chem Lett, 2019).
